Patent US20230027361A1, “METTL3 MODULATORS” (priority 2019, published 2023)

molecular target: METTL3/METTL14 (Homo sapiens, UniProt Q86U44); assay: METTL3-14 Standard Enzyme Assay (METTL3 biochemical assay); conditions: METTL3 biochemical assay; read-out: METTL3 IC50
How it was run: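 Tritium transfer from ³H-SAM (100 nM) to biotinylated RNA (100 nM) captured on streptavidin flashplates and counted by scintillation. Enzyme complex (2.5 nM) with compound, 5 min preincubation, 30 min reaction at ambient temperature, HEPES pH 7.5 buffer, stopped by excess unlabeled SAM.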

Chain of METTL3/METTL14 (Q86U44 whole entry, species assumed): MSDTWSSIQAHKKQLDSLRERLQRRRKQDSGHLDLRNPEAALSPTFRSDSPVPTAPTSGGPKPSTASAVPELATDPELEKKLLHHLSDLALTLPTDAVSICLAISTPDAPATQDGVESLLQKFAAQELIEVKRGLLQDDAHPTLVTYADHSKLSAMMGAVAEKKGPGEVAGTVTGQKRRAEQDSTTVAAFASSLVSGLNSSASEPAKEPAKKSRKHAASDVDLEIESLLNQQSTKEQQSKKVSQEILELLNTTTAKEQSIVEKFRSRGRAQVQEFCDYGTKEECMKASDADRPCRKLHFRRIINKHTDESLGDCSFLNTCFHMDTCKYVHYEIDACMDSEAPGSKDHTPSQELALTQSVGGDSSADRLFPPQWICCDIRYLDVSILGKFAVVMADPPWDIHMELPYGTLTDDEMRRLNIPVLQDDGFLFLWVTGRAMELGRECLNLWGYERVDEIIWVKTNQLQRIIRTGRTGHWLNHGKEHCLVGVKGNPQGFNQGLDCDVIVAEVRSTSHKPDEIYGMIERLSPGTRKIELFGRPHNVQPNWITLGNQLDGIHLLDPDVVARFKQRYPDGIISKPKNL
Chain of METTL3/METTL14 (Q9HCE5 whole entry partner, species assumed): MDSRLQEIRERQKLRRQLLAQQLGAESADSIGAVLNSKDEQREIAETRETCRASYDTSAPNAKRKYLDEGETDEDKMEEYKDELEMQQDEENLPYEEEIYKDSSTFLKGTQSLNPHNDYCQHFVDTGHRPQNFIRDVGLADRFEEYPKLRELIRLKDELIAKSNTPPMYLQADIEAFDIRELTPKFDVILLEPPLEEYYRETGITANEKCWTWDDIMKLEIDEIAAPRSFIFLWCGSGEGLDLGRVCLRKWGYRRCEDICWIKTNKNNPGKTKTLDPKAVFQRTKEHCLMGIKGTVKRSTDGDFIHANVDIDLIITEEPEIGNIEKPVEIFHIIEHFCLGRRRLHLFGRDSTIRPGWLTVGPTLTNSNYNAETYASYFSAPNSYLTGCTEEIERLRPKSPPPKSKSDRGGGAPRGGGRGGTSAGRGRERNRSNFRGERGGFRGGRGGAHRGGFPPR

SMILES	IC50 [nM]
CNc1ccc2ccc(OC[C@H]3O[C@@H](n4cc(C5CCN(C)C5)c5c(N)ncnc54)[C@@H](F)[C@@H]3O)cc2n1 (stereo partly shown) [I-17]	10 to 100
CCc1cc(N)c2ccc(OC[C@H]3O[C@@H](n4cc(Br)c5c(N)ncnc54)[C@@H](F)[C@@H]3O)cc2n1 [I-18]	10 to 100
Nc1nc2ccc(OC[C@H]3O[C@@H](n4cc(Br)c5c(N)ncnc54)[C@@H](F)[C@@H]3O)cc2[nH]1 [I-21]	100 to 1000
CNc1ccc2ccc(OC[C@H]3O[C@@H](n4cc(C5CCN(C)CC5)c5c(N)ncnc54)[C@@H](F)[C@@H]3O)cc2n1 [I-24]	10 to 100
CNc1ccc2ccc(OC[C@H]3O[C@@H](n4cc(Br)c5c(N)nc(N)nc54)[C@@H](F)[C@@H]3O)cc2n1 [I-25]	100 to 1000
Cn1ccnc1-c1ccc2ccc(OC[C@H]3O[C@@H](n4cc(Br)c5c(N)ncnc54)[C@@H](F)[C@@H]3O)cc2n1 [I-26]	> 1000
CCNc1ccc2ccc(CC[C@H]3O[C@@H](n4ccc5c(N)ncnc54)[C@H](O)[C@@H]3O)cc2n1 [I-90]	10 to 100

More lines, now with the values ahead:

IC50 [nM]	SMILES
10 to 100	Cc1cc(N)c2ccc(OC[C@H]3O[C@@H](n4cc(C5CCCC5)c5c(N)ncnc54)[C@H](O)[C@@H]3O)cc2n1 [I-16]
10 to 100	Cc1cc(N)c2ccc(OC[C@H]3O[C@@H](n4cc(Br)c5c(N)ncnc54)[C@@H](F)[C@@H]3O)cc2n1 [I-27]
10 to 100	CCNc1ccc2ccc(OC[C@H]3C[C@@H](n4ccc5c(N)ncnc54)[C@H](O)[C@@H]3O)cc2n1 [I-81]

same assay, conditions: read-out: METTL3 IC50; METTL3 biochemical assay

SMILES	IC50 [nM]
CNc1ccc2ccc(OC[C@H]3O[C@@H](n4cc(-c5cnn(C)c5)c5c(N)ncnc54)[C@@H](F)[C@@H]3O)cc2n1 [I-11]	10 to 100

molecular target: PRMT5-MEP50 (Homo sapiens, UniProt O14744); assay: PRMT5 Assay (PRMT5 biochemical assay); conditions: PRMT5 biochemical assay; read-out: PRMT5 IC50
How it was run: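 Radiometric methyltransferase read-out: after 60 min reaction, excess unlabelled SAM (15 μM) stops turnover and biotinylated H4 peptide (100 nM) carrying 3H-methyl from 250 nM 3H-SAM is captured on streptavidin flashplates (2 h, 25° C) for scintillation counting. Enzyme, 2.5 nM PRMT5-MEP50, was preincubated 5 min with compound in pH 8.0 Tris buffer with DTT and Tween.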

Chain of PRMT5-MEP50 (O14744 whole entry): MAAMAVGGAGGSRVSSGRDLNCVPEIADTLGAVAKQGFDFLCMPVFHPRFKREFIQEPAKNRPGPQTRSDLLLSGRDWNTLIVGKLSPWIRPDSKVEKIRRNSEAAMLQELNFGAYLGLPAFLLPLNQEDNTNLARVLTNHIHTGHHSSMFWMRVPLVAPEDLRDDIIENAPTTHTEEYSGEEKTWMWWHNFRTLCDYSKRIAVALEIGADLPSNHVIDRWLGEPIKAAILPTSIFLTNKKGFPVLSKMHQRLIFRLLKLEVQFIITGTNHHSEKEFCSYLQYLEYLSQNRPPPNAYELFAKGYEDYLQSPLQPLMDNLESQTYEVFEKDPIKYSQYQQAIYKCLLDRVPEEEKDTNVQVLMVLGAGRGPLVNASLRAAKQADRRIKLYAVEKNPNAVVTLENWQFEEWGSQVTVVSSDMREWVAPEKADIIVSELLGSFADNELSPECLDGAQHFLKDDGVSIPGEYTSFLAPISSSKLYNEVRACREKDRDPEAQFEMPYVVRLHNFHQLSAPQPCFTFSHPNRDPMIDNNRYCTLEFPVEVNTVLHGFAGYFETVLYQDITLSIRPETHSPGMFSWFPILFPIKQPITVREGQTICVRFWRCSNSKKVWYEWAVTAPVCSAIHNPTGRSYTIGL
Chain of PRMT5-MEP50 (Q9BQA1 whole entry partner): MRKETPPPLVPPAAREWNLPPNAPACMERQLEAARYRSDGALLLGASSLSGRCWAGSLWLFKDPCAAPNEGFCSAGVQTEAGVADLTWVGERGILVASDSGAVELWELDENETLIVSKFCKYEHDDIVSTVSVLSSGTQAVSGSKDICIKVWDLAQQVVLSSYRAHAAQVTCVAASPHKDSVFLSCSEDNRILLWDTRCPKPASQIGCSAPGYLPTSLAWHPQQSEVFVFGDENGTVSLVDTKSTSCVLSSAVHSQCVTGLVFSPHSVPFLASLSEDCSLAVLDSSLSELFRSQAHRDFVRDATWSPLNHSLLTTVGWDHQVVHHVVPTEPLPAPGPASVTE

SMILES	IC50 [nM]
CNc1ccc2ccc(OC[C@H]3O[C@@H](n4cc(C5CCN(C)C5)c5c(N)ncnc54)[C@@H](F)[C@@H]3O)cc2n1 (stereo partly shown) [I-17]	100 to 1000
CCc1cc(N)c2ccc(OC[C@H]3O[C@@H](n4cc(Br)c5c(N)ncnc54)[C@@H](F)[C@@H]3O)cc2n1 [I-18]	100 to 1000
Nc1nc2ccc(OC[C@H]3O[C@@H](n4cc(Br)c5c(N)ncnc54)[C@@H](F)[C@@H]3O)cc2[nH]1 [I-21]	10 to 100
CNc1ccc2ccc(OC[C@H]3O[C@@H](n4cc(C5CCN(C)CC5)c5c(N)ncnc54)[C@@H](F)[C@@H]3O)cc2n1 [I-24]	100 to 1000
CNc1ccc2ccc(OC[C@H]3O[C@@H](n4cc(Br)c5c(N)nc(N)nc54)[C@@H](F)[C@@H]3O)cc2n1 [I-25]	10 to 100
Cn1ccnc1-c1ccc2ccc(OC[C@H]3O[C@@H](n4cc(Br)c5c(N)ncnc54)[C@@H](F)[C@@H]3O)cc2n1 [I-26]	100 to 1000
CCNc1ccc2ccc(CC[C@H]3O[C@@H](n4ccc5c(N)ncnc54)[C@H](O)[C@@H]3O)cc2n1 [I-90]	< 10

More lines, now with the values ahead:

IC50 [nM]	SMILES
10 to 100	Cc1cc(N)c2ccc(OC[C@H]3O[C@@H](n4cc(C5CCCC5)c5c(N)ncnc54)[C@H](O)[C@@H]3O)cc2n1 [I-16]
100 to 1000	Cc1cc(N)c2ccc(OC[C@H]3O[C@@H](n4cc(Br)c5c(N)ncnc54)[C@@H](F)[C@@H]3O)cc2n1 [I-27]
< 10	CCNc1ccc2ccc(OC[C@H]3C[C@@H](n4ccc5c(N)ncnc54)[C@H](O)[C@@H]3O)cc2n1 [I-81]

same assay, conditions: read-out: PRMT5 IC50; PRMT5 biochemical assay

SMILES	IC50 [nM]
CNc1ccc2ccc(OC[C@H]3O[C@@H](n4cc(-c5cnn(C)c5)c5c(N)ncnc54)[C@@H](F)[C@@H]3O)cc2n1 [I-11]	100 to 1000

molecular target: T1, METTL16 (Homo sapiens, UniProt Q86W50); assay: METTL16 Assay (METTL16 biochemical assay); conditions: read-out: METTL16 IC50
T1 sequence (Q86W50 1-562): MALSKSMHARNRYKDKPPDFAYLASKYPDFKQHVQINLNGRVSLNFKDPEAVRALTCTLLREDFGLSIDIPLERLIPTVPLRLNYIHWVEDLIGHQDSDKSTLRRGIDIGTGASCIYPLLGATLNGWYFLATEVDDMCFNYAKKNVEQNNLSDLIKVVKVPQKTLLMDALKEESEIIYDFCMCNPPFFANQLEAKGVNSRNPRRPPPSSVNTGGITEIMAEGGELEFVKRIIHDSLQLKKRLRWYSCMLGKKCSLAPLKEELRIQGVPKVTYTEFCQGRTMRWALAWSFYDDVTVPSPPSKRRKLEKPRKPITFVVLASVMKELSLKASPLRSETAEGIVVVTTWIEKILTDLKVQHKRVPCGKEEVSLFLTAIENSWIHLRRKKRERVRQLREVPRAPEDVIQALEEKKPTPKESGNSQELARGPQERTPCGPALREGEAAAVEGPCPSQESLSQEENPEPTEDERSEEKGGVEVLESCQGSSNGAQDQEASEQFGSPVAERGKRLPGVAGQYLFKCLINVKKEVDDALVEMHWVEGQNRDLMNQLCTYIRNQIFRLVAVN
Experimental: Assays were performed in a 25 μl-volume in 384-well V-bottom polypropylene microplates (Greiner Bio-One, cat. No. 781280) at ambient temperature. Optimized 1× assay buffer was 20 mM HEPES pH 7.5, 50 mM KCl, 1 mM DTT, 0.01% Tween, 0.01% BSG, 0.004 U/μl RNAseOUT (cat. No. 10777019, ThermoFisher Scientific, Waltham, Mass.). For compound screening METTL16 (final concentration, f.c.=100 nM) was added using a Multidrop Combi (ThermoFisher Scientific, Waltham, Mass.) and preincubated for 5 min. Reactions were started by adding 3′ biotinylated RNA ([…]-biotin) (f.c.=50 nM), 3H-SAM (f.c.=200 nM) and non-radiolabeled SAM (f.c.=800 nM) substrates. Reactions proceeded for 20 minutes and were quenched with excess non-radioactive SAM (f.c.=100 μM). The reactions were then transferred to streptavidin-coated flashplates and incubated for 2 hours at 25° C. Following two washing cycles with 0.1% Tween-20, the plates were sealed and read on a TopCount (PerkinElmer, Waltham, Mass.) plate-based scintillation counter. For determination of kinetic parameters, reaction times were optimized so that measurements were taken during the initial velocity phase of the reaction.

SMILES	IC50 [nM]
CNc1ccc2ccc(OC[C@H]3O[C@@H](n4cc(-c5cnn(C)c5)c5c(N)ncnc54)[C@@H](F)[C@@H]3O)cc2n1 [I-11]	> 1000
CNc1ccc2ccc(OC[C@H]3O[C@@H](n4cc(C5CCN(C)C5)c5c(N)ncnc54)[C@@H](F)[C@@H]3O)cc2n1 (stereo partly shown) [I-17]	> 1000
CCc1cc(N)c2ccc(OC[C@H]3O[C@@H](n4cc(Br)c5c(N)ncnc54)[C@@H](F)[C@@H]3O)cc2n1 [I-18]	> 1000
Nc1nc2ccc(OC[C@H]3O[C@@H](n4cc(Br)c5c(N)ncnc54)[C@@H](F)[C@@H]3O)cc2[nH]1 [I-21]	> 1000
CNc1ccc2ccc(OC[C@H]3O[C@@H](n4cc(C5CCN(C)CC5)c5c(N)ncnc54)[C@@H](F)[C@@H]3O)cc2n1 [I-24]	> 1000
CNc1ccc2ccc(OC[C@H]3O[C@@H](n4cc(Br)c5c(N)nc(N)nc54)[C@@H](F)[C@@H]3O)cc2n1 [I-25]	> 1000
Cn1ccnc1-c1ccc2ccc(OC[C@H]3O[C@@H](n4cc(Br)c5c(N)ncnc54)[C@@H](F)[C@@H]3O)cc2n1 [I-26]	> 1000
CCNc1ccc2ccc(CC[C@H]3O[C@@H](n4ccc5c(N)ncnc54)[C@H](O)[C@@H]3O)cc2n1 [I-90]	> 1000

Further lines, results first:

IC50 [nM]	SMILES
> 1000	Cc1cc(N)c2ccc(OC[C@H]3O[C@@H](n4cc(C5CCCC5)c5c(N)ncnc54)[C@H](O)[C@@H]3O)cc2n1 [I-16]
> 1000	Cc1cc(N)c2ccc(OC[C@H]3O[C@@H](n4cc(Br)c5c(N)ncnc54)[C@@H](F)[C@@H]3O)cc2n1 [I-27]
> 1000	CCNc1ccc2ccc(OC[C@H]3C[C@@H](n4ccc5c(N)ncnc54)[C@H](O)[C@@H]3O)cc2n1 [I-81]

molecular target: METTL1/WDR4 (Homo sapiens, UniProt Q9UBP6); assay: METTL1 Assay (METTL1 biochemical assay); conditions: read-out: METTL1 IC50; METTL1 biochemical assay
How it was run: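 Radiometric methyltransfer by METTL1/WDR4 (6.25 nM f.c., 5 min preincubation) at ambient temperature in HEPES pH 7.5, KCl, MgCl2, DTT; started with 25 nM 3′-biotinylated RNA and 60 nM 3H-SAM, run 20 min, quenched with 15 μM cold SAM. Product captured on streptavidin flashplates (2 h, 25° C), counted by scintillation.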

Chain of METTL1/WDR4 (Q9UBP6 whole entry, species assumed): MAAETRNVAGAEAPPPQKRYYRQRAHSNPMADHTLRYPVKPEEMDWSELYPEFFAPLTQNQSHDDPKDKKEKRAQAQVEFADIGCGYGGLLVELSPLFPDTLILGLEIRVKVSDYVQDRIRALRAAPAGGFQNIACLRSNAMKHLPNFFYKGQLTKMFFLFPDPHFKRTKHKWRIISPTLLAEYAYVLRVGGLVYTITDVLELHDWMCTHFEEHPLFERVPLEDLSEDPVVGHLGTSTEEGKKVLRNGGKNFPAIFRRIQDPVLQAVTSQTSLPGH
Chain of METTL1/WDR4 (P57081 whole entry partner, species assumed): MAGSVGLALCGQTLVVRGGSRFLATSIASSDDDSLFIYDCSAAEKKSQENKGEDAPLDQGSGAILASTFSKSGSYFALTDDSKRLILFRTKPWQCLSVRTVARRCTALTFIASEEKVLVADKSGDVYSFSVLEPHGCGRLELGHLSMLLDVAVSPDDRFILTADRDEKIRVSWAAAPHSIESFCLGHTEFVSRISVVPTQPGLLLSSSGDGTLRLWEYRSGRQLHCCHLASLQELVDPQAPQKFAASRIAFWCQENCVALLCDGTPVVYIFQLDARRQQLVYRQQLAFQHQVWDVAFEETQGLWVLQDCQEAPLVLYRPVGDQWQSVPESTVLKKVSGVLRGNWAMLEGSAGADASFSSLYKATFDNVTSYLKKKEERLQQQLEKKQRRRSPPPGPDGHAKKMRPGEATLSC

SMILES	IC50 [nM]
Nc1nc2ccc(OC[C@H]3O[C@@H](n4cc(Br)c5c(N)ncnc54)[C@@H](F)[C@@H]3O)cc2[nH]1 [I-21]	> 1000
CNc1ccc2ccc(OC[C@H]3O[C@@H](n4cc(C5CCN(C)CC5)c5c(N)ncnc54)[C@@H](F)[C@@H]3O)cc2n1 [I-24]	> 1000
CNc1ccc2ccc(OC[C@H]3O[C@@H](n4cc(Br)c5c(N)nc(N)nc54)[C@@H](F)[C@@H]3O)cc2n1 [I-25]	> 1000
Cn1ccnc1-c1ccc2ccc(OC[C@H]3O[C@@H](n4cc(Br)c5c(N)ncnc54)[C@@H](F)[C@@H]3O)cc2n1 [I-26]	> 1000
